# Assay results from patent publication US5919799A, “Imidazothiazole compound” (Nikken Chemicals Co., Ltd., priority 1995, dated 1999).
# Counter-ions that a name gives are not always drawn.
# Legend:
# [1] = system: VJ-300 cells (multidrug resistant clones of KB cells); assay: In vitro suppression of proliferation of VJ-300 cells by co-administration with vincristine; type: cell-based, Human
# Protocol: As the incubation solution, an Eagle MEM medium (made by Nissui Seiyakusha) containing 10% fetal calf serum (made by Flow Laboratories Co.) and 0.292 mg/ml L-glutamine (made by Flow Laboratories Co.) was used. The action overcoming resistance to an anti-neoplastic agent and effect in enforcing the effect of an anti-neoplastic agent obtained through co-administration of the anti-neoplastic agent doxorubicin (adriamycin, ADM) and the test compounds were tested as follows:
# The test cells were suspended in the incubation medium and adjusted to a cell density of about 200 cells/ml. 2 ml portions of the cell suspension were placed in petri dishes and incubated in a carbon dioxide gas incubator (5% CO2, 95% air) at 37° C. for 24 hours. Next, predetermined concentrations of aqueous ADM solutions and dimethyl sulfoxide (DMSO) solutions of predetermined concentrations of the test compounds were added into 5 to 10 μl portions, then incubation was continued for 7 days. After the end of the incubation, the samples were fixed by methanol, Giemsa staining was performed, the number of colonies in each dish was counted, and a volume reaction curve was prepared. This was used to calculate the ADM concentration at a 50% cell survival rate (LD50) and judge the action overcoming resistance to an anti-neoplastic agent and effect in enhancing the effect of an anti-neoplastic agent.
# The LD50 concentration of ADM in the ADM control group for KB cells was shown as the resistance degree "1" and the other LD50 concentrations were indexed against this to calculate the resistance degrees. In Table 2, ADM alone (control) is the group administered ADM alone, ADM+Compound 1 is the group co-administered ADM and Compound 1 (1 μg /ml) and so on down to ADM+Compound 19 which is the group co-administered ADM and Compound 19 (1 μg /ml).
# A volume reaction curve was prepared and the resistance calculated. In the Tables, VCR alone (control) is the group administered VCR alone, VCR+Compound 1 is the group co-administered VCR and Compound 1(1 μg /ml) and so on down to VCR+Compound 16 which is the group co-administered VCR and Compound 16 (1 μg/ml).
# [2] = system: VCR resistant murine leukemic (P388/VCR) cells; assay: In vivo effect of overcoming resistance to vincristine in VCR resistant murine leukemia cell bearing mice (intraperitoneal); design: species or system CDF1 male mice; details: i.p., 5 days; for Rate of prolongation of life (T/C %): vs non-administered control
# Protocol: (a) 10^6 VCR resistant murine leukemic (P388/VCR) cells were transplanted intraperitoneally to groups of six CDF1 male mice. The compound of the present invention (10 or 100 mg/kg) was suspended in 0.5% sodium carboxymethyl cellulose containing 0.1% Tween 80, while the VCR (100 μg/kg) was dissolved in physiological saline. These were each administered intraperitoneally over 5 days and the mice observed to find the days of survival and the rate of prolongation of life with respect to the control (T/C). The effect in overcoming resistance to an anti-neoplastic agent (T/V) was found from the following formula:
# Effect in overcoming resistance to anti-neoplastic agent (T/V%)=(Rate of prolongation of life when co-administering VCR and compound of present invention (T/C%))/(Rate of prolongation of life by VCR alone
# In Table 5, "Control" is the non-administered group, VCR alone is the group administered just VCR (100 μg /kg), VCR+Compound 1 is the group co-administered VCR (100 μg /kg) and Compound 1 (100 mg/kg) and so on to VCR+Compound 14* which is the group co-administered VCR (100 μg /kg) and Compound 14 (10 mg/kg).
# [3] = Acute toxicity test (a), intraperitoneal, three animals per group; details: mouse, in vivo, ip, ICR male mice, up to 7 days after administration
# Description: (a) Animals used: ICR male mice (Charles River Japan), 7 to 8 weeks old, were used three to a group.
# Test method: The compound of the present invention was suspended in 0.5% sodium carboxymethyl cellulose(CMC-Na) containing 0.1% Tween 80. […] The survival of the animals was examined up to 7 days after administration, then the Van Der Wearder area method was used to calculate the LD50 value.
# [4] = system: VCR resistant murine leukemia (P388/VCR) cells; assay: In vivo effect of overcoming resistance with etoposide (VP-16) in P388/VCR bearing mice (intravenous); design: species or system CDF1 male mice; details: i.v., five days; for Rate of prolongation of life (T/C %): vs non-administered control
# Protocol: (b) Separately, groups of six CDF1 male mice were intravenously given transplants of 1.2×10^5 VCR resistant murine leukemia (P388/VCR) cells. The compound of the present invention (20 or 40 mg/kg) was dissolved in 0.01N hydrochloric acid. Etoposide (VP-16, 3 mg/kg) was dissolved in a physiological saline solution. These were administered intravenously for five days and the days of survival were found. In the same way as (a), the rate of prolongation of life with respect to the control (T/C) and the effect in overcoming the resistance to an anti-neoplastic agent (T/V) were found. In Table 6, the control is the non-administered group, VP-16 alone is the group administered VP-16 (3 mg/kg) and VP-16+Compound 5 is the group co-administered VP-16 (3 mg/kg) and Compound 5 (40 mg/kg) and so on to VP-16+Compound 16 which is the group co-administered VP-16 (3 mg/kg) and Compound 16 (40 mg/kg).
# [5] = Table 3, co-administered VCR and test compound (1 μg/ml), relative to VCR alone in KB = 1
# [6] = VCR (100 μg/kg) + compound (100 mg/kg)
# [7] = VCR (100 μg/kg) + compound (100 mg/kg), vs VCR alone
# [8] = Table 4, co-administered VCR and test compound (1 μg/ml), relative to VCR alone in KB = 1
# [9] = VP-16 (3 mg/kg) + compound (20 mg/kg)
# [10] = VP-16 (3 mg/kg) + compound (40 mg/kg)
# [11] = VP-16 (3 mg/kg) + compound (40 mg/kg), vs VP-16 alone
# [12] = VCR (100 μg/kg) + compound (10 mg/kg)
Compound,"Resistance with VCR, VJ-300 (resistance degree) [1, 5]","Days of survival [2, 6] [days]","Effect overcoming resistance (T/V %) [2, 7] [%]","Rate of prolongation of life (T/C %) [2, 6] [%]","Resistance with VCR, VJ-300 (resistance degree) [1, 8]",further results
"O=C(NN=Cc1c(-c2ccccc2)nc2sc3c(n12)CCCC3)c1cccnc1 [Compound 1, 5,6,7,8-tetrahydro-2-phenyl-3-(3-pyridylcarbonylaminoiminomethyl)imidazo[2,1-b]benzothiazole]",3.3,12.33,111,118,–,LD50 at 168 h [3]: ≥ 2000 mg/kg
"O=C(NN=Cc1c(-c2ccc(-c3ccccc3)cc2)nc2sc3c(n12)CCCC3)c1cccnc1 [Compound 2, 5,6,7,8-tetrahydro-2-biphenyl-3-(3-pyridylcarbonylaminoiminomethyl)imidazo[2,1-b]benzothiazole]",1.6,12.67,114,121,–,LD50 at 168 h [3]: ≥ 2000 mg/kg
"O=C(NN=Cc1c(-c2cccc([N+](=O)[O-])c2)nc2sc3c(n12)CCCC3)c1cccnc1 [Compound 3, 5,6,7,8-tetrahydro-2-(3-nitrophenyl)-3-(3-pyridylcarbonylaminoiminomethyl)imidazo[2,1-b]benzothiazole]",2.7,–,–,–,–,–
"COc1cc(-c2nc3sc4c(n3c2C=NNC(=O)c2cccnc2)CCCC4)cc(OC)c1OC [Compound 4, 5,6,7,8-tetrahydro-2-(3,4,5-trimethoxyphenyl)-3-(3-pyridylcarbonylaminoiminomethyl)imidazo[2,1-b]benzothiazole]",20.9,13.28,120,127,–,–
"O=C(NN=Cc1c(-c2ccccc2)nc2sc3c(n12)CCCC3)c1ccccc1 [Compound 8, 5,6,7,8-tetrahydro-2-phenyl-3-(benzoylaminoiminomethyl)imidazo[2,1-b]benzothiazole]",3.5,12.00,108,115,–,–
"O=C(NN=Cc1c(-c2ccccc2)nc2sc3c(n12)CCCC3)C1CCCN(Cc2ccccc2)C1 (stereo not drawn) [Compound 9, 5,6,7,8-tetrahydro-2-phenyl-3-[N-benzyl-3-piperidylcarbonylaminoiminomethyl]imidazo[2,1-b]benzothiazole]",–,–,–,–,2.5,–
"CN1CCCC(C(=O)NN=Cc2c(-c3ccc([N+](=O)[O-])cc3)nc3sc4c(n23)CCCC4)C1 (stereo not drawn) [Compound 10, 5,6,7,8-tetrahydro-2-(4-nitrophenyl)-3-[N-methyl-3-piperidylcarbonylaminoiminomethyl]imidazo[2,1-b]benzothiazole hydrochloride]",–,–,–,–,8.7,"Days of survival [4, 9]: 12.0 days; Effect overcoming resistance (T/V %) ([4]; VP-16 (3 mg/kg) + compound (20 mg/kg), vs VP-16 alone): 107%; Rate of prolongation of life (T/C %) [4, 9]: 117%"
"CN1CCCC(C(=O)NN=Cc2c(-c3ccc(-c4ccccc4)cc3)nc3sc4c(n23)CCCC4)C1 (stereo not drawn) [Compound 11, 5,6,7,8-tetrahydro-2-biphenyl-3-[N-methyl-3-piperidylcarbonylaminoiminomethyl]imidazo[2,1-b]benzothiazole hydrochloride]",–,–,–,–,1.3,"Days of survival [4, 10]: 13.0 days; Effect overcoming resistance (T/V %) [4, 11]: 116%; Rate of prolongation of life (T/C %) [4, 10]: 126%"
"CC(C)N1CCCC(C(=O)NN=Cc2c(-c3ccccc3)nc3sc4c(n23)CCCC4)C1 (stereo not drawn) [Compound 13, 5,6,7,8-tetrahydro-2-phenyl-3-[N-isopropyl-3-piperidylcarbonylaminoiminomethyl]imidazo[2,1-b]benzothiazole hydrochloride]",–,–,–,–,2.0,–
"O=C(NN=Cc1c(-c2ccccc2)nc2sc3ccccc3n12)c1cccnc1 [Compound 14, 2-phenyl-3-[3-pyridylcarbonylaminoiminomethyl]imidazo[2,1-b]benzothiazole]",–,–,–,–,4.0,"Days of survival [2, 12]: 13.67 days; Effect overcoming resistance (T/V %) ([2]; VCR (100 μg/kg) + compound (10 mg/kg), vs VCR alone): 124%; Rate of prolongation of life (T/C %) [2, 12]: 131%"
"CCCN1CCCC(C(=O)NN=Cc2c(-c3ccccc3)nc3sc4ccccc4n23)C1 (stereo not drawn) [Compound 16, 2-phenyl-3-[N-propyl-3-piperidylcarbonylaminoimino-methyl]imidazo[2,1-b]benzothiazole hydrochloride]",–,–,–,–,2.6,"Days of survival [4, 10]: 12.7 days; Effect overcoming resistance (T/V %) [4, 11]: 113%; Rate of prolongation of life (T/C %) [4, 10]: 123%"
"CC[C@]1(O)C[C@H]2CN(CCc3c([nH]c4ccccc34)[C@@](C(=O)OC)(c3cc4c(cc3OC)N(C=O)[C@H]3[C@@](O)(C(=O)OC)[C@H](OC(C)=O)[C@]5(CC)C=CCN6CC[C@]43[C@@H]65)C2)C1 [VCR, vincristine, reference compound]",–,–,–,–,–,"Resistance with VCR, VJ-300 (resistance degree) ([1]; Table 3, VCR alone (Control), relative to KB = 1): 306.6; Resistance with VCR, VJ-300 (resistance degree) ([1]; Table 4, VCR alone (Control), relative to KB = 1): 843.1; Days of survival ([2]; VCR alone (100 μg/kg)): 11.08 days; Effect overcoming resistance (T/V %) ([2]; VCR alone (100 μg/kg), reference = 100): 100%; Rate of prolongation of life (T/C %) ([2]; VCR alone (100 μg/kg)): 106%"
"COc1cc([C@@H]2c3cc4c(cc3[C@@H](O[C@@H]3O[C@@H]5CO[C@@H](C)O[C@H]5[C@H](O)[C@H]3O)[C@H]3COC(=O)[C@H]23)OCO4)cc(OC)c1O [VP-16, Etoposide, reference compound]",–,–,–,–,–,"Days of survival ([4]; VP-16 alone (3 mg/kg)): 11.2 days; Effect overcoming resistance (T/V %) ([4]; VP-16 alone (3 mg/kg), reference = 100): 100%; Rate of prolongation of life (T/C %) ([4]; VP-16 alone (3 mg/kg)): 109%"
